Experimental data from PMC10065799, “High-throughput profiling of sequence recognition by tyrosine kinases and SH2 domains using bacterial peptide display” (eLife, 2023).

Legend:
Experiment in all cases: pTyr-Var library bacterial peptide display kinase screen (enrichment scores)
[1] = target: c-Src kinase domain (Homo sapiens, UniProt P12931); format: biochemical; details: sheet "Src";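 note: log2 fold change in enrichment of variant over reference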
[2] = target: T1, c-Abl kinase domain (Mus musculus, UniProt P00520); format: biochemical;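 note: log2 fold change in enrichment of variant over reference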
T1 sequence (P00520 242-493 limits assumed): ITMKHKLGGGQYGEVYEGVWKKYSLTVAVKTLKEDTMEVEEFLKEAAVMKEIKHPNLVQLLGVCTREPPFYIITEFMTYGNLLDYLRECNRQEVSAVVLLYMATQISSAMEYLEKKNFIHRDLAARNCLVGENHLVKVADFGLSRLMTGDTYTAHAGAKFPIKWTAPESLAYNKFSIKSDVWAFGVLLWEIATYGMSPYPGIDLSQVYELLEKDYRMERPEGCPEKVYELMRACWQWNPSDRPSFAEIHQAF

[3] = system: Fer kinase domain; format: biochemical, mouse; details: sheet "Fer";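 note: log2 fold change in enrichment of variant over reference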
[4] = system: EPHB1 kinase domain; format: biochemical, human; details: for Screen: sheet EPHB1, effect of the variant peptide relative to its reference peptide in the pTyr-Var library screen (enrichment scores); for Screen (variant relative to reference peptide, measured in the pTyr-Var library screen): sheet "EPHB1", variant seq vs reference seq, bacterial peptide display enrichment
[5] = effect of the variant peptide relative to its reference peptide in the pTyr-Var library screen
[6] = sheet "Abl", effect of variant peptide relative to its reference peptide in pTyr-Var library screen (enrichment)
[7] = variant peptide versus its reference peptide in the pTyr-Var library screen
[8] = fig5-data2, sheet "Abl", Screen for the variant/reference peptide pair, pTyr-Var library
[9] = value of the variant peptide against its reference peptide in the pTyr-Var library screen with Fer

Sequence: AHAGEYGAVAL [HBA1_Y25_E28V]
- Screen [1, 5]: 2.935

Sequence: APRKVYDTQDD [ZFPL1_Y215_R218Q]
- Screen [2, 6]: 3.612

Sequence: ARSHIYTLASC [MEFV_Y741_F743L]
- Screen [1, 5]: 0.6764

Sequence: ATRDVYNPFET [SCAMP3_Y41_L38R]
- Screen [1, 7]: -1.143

Sequence: AVRFIYTIDGS [DCX_Y105_G100A_YF]
- Screen [1, 5]: 0.6298

Sequence: CEAMEYPESKQ [BTK_Y511_L512P]
- Screen [2, 8]: -1.088

Sequence: CFCSWYRGWAP [TIMP3_Y195_G190C_YF]
- Screen ([3]; variant peptide relative to its reference peptide, pTyr-Var library screen enrichment): 2.823
- Screen [1, 7]: 2.542

Sequence: CGTPDYIAREI [PRKCG_Y521_P524R]
- Screen [2, 8]: 0.3032

Sequence: CGTPEYRAPEI [PRKACA_Y205_L206R]
- Screen [2, 8]: 0.964

Sequence: CKLVDYDSARH [BIN1_Y150_R145C]
- Screen [2, 8]: 0.9945

Sequence: CLNAIYQNNLT [GSR_Y158_R153C]
- Screen [3, 9]: 1.727

Sequence: CPFNLYAEQFS [HGD_Y40_L44F_YF]
- Screen [4]: 0.9285

Sequence: CTTIRYNFMCN [TP53_Y234_H233R_YF]
- Screen [2, 6]: 1.107

Sequence: CVRTIYTIDGS [DCLK2_Y124_G119C]
- Screen [1, 5]: 0.3247

Sequence: DFFDLYGGEKK [PTPN11_Y66_F71K_YF]
- Screen [2, 8]: 0.6551
- Screen [1, 7]: -0.3154

Sequence: DQVEQYNKELE [LMNA_Y259_K260N]
- Screen [2, 8]: -0.1463

Sequence: DTLASYLDKVR [KRT12_Y139_R135T]
- Screen [2, 8]: -1.083

Sequence: ECIEFYELDKK [PMM2_Y145_R141C]
- Screen [2, 8]: 0.4752

Sequence: EDKSIYRRGAC [PRKCI_Y125_R130C]
- Screen [2, 8]: 0.9369

Sequence: EEQFFYEKAIL [BCCIP_Y257_E254Q]
- Screen [3, 9]: -0.4348
- Screen [2, 8]: 0.5588

Sequence: EGWQVYRLGTR [MISP_Y95_A99T]
- Screen [1, 5]: -0.2875

Sequence: EKGEEYGGGGG [TUBA1A_Y451_E447K]
- Screen [2, 6]: 1.685

Sequence: EKKKFYDAKIE [CASP5_Y104_T106A_YF]
- Screen [2, 8]: 2.357

Sequence: ELTSVYGSRAR [SENP1_Y349_D350G]
- Screen [1, 7]: 0.9781

Sequence: EVASVYESFQP [MAVS_Y92_Q93E_YF]
- Screen [3, 9]: 1.389
- Screen [1, 5]: 0.01447

Sequence: EWQQIYTFDSG [JUP_Y20_T19I_YF]
- Screen [3, 9]: 3.242
- Screen [1, 5]: 0.7952

Sequence: FAFQLYDLDPD [CHP2_Y123_R127P_YF]
- Screen [1, 5]: 0.6897

Sequence: FDAHIYEGCVI [PRKCD_Y64_R67C]
- Screen [3, 9]: 2.331
- Screen [1, 7]: 0.6982

Sequence: FFRNVYHLASV [RBL1_Y796_K794N_YF]
- Screen [2, 8]: -1.016

Sequence: FSGKAYADEEQ [CRIM1_Y826_R831Q]
- Screen [2, 8]: 0.3767

Sequence: FSMGCYEISLE [HMGCL_Y198_G203E_YF]
- Screen [3, 9]: -0.6623
- Screen [1, 5]: -0.09414

Sequence: GGPAEYLRRAS [PKLR_Y38_G37E]
- Screen [2, 8]: 0.6619

Sequence: GKSFIYAAFHA [KCNT1_Y563_T562I]
- Screen [1, 5]: -0.6339

Sequence: GLCSFYETSKM [MAGED2_Y449_R446C_YF]
- Screen [3, 9]: 1.926

Sequence: GLIPAYHWVIM [NMNAT1_Y64_R66W]
- Screen [3, 9]: 3.48

Sequence: GRIHSYRGHLW [VHL_Y112_R107G]
- Screen (variant relative to reference peptide, measured in the pTyr-Var library screen) [4]: -1.934
- Screen [1, 7]: -3.383

Sequence: HISGVYKLPPD [ANGPTL7_Y145_R140H]
- Screen [1, 5]: 1.474

Sequence: HSVLNYGVCVC [JAK2_Y613_L609S]
- Screen [4]: -0.7312

Sequence: IGEVVYQRAAM [GRIN2A_Y502_V506A]
- Screen [1, 5]: -0.3302

Sequence: IMITGYLLLFR [INSR_Y87_D86G]
- Screen [2, 8]: 0.04202

Sequence: IRRIAYEFVEM [ADA_Y84_K80R]
- Screen [3, 9]: -0.04574

Sequence: ISHVAYLVLGK [TRRAP_Y892_R893L]
- Screen [2, 6]: -1.807

Sequence: KDPPDYKFQPR [SOX9_Y172_H169P_YF]
- Screen [2, 6]: -0.03774

Sequence: KGEDFYCVTFH [FHL1_Y149_C153Y_YF]
- Screen [3, 9]: 1.626
- Screen [2, 8]: -1.856

Sequence: LANNEYFFQVC [TTN_Y18997_R19000Q_YF]
- Screen (variant relative to reference peptide, measured in the pTyr-Var library screen) [4]: 1.182

Sequence: LDPDSYNKFEN [FOXC1_Y159_M161K]
- Screen [2, 8]: 0.592

Sequence: LGKGSYAKVRS [TSSK2_Y23_K27R]
- Screen [2, 6]: 0.9991
- Screen [1, 7]: -0.7681

Sequence: LITTLYIDFLG [KCNQ1_Y267_G269D]
- Screen [1, 5]: -1.548

Sequence: LITTLYIGFLD [KCNQ1_Y267_G272D]
- Screen [3, 9]: 0.7229
- Screen [1, 5]: 0.3249

Sequence: LNSFIYSLRNR [OR1A1_Y288_P285S]
- Screen [2, 8]: 0.03527
- Screen [1, 7]: 0.8467

Sequence: LRAGVYREKDQ [DNM2_Y626_P627R]
- Screen [2, 8]: -0.9512

Sequence: LTDTVYSSSSA [OR4C12_Y71_I67T]
- Screen [3, 9]: 0.3207
- Screen [1, 7]: -0.5241

Sequence: LTQRTYMLENA [GPAA1_Y49_S51L]
- Screen [2, 8]: -1.886
